Structures can show the parent of a compound that is named as a salt.

Among the data in patent publication US9718828B2 (MERCK SHARP & DOHME CORP., priority 2011, dated 2017) are IC50 values, retold here.

Chain of hBTK (full-length BTK, 6HIS-tag cleaved) (Q06187 whole entry): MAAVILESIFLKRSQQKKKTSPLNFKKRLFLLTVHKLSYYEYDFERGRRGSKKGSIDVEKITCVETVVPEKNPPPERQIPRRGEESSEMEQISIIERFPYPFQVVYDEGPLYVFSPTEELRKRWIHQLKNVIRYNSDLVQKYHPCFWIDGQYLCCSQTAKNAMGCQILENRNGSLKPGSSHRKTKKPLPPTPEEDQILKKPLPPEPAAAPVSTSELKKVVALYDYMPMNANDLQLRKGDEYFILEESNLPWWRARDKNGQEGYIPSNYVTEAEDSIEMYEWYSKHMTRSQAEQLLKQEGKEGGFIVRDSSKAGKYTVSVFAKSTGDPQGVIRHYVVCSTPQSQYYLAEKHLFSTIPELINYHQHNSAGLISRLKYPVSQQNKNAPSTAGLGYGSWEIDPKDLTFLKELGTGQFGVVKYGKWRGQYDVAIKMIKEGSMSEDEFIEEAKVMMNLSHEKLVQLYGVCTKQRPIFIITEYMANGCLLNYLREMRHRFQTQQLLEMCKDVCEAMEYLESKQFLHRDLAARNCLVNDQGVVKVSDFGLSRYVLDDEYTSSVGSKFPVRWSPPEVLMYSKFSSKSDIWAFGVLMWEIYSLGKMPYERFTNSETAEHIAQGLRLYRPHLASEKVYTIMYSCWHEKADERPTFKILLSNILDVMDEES

One assay has as its target hBTK (full-length BTK, 6HIS-tag cleaved) (Homo sapiens (Human), UniProt Q06187). Kind of assay: BTK enzymatic activity, LANCE TR-FRET assay (Assay Method C). The class given is biochemical. Conditions: LANCE TR-FRET, 50 pM hBTK, 25 μM ATP; class 100-1000 is given as ≧100 nM-<1 μM; read-out: IC50 Btk activity values - Assay Method C. A general note: TR-FRET usually uses a lanthanide donor and a delayed reading to cut background.
By IC50 is commonly meant the midpoint of a concentration-inhibition curve. Consider `COCC(=O)N1CCO[C@@H](c2nc(-c3ccc(C(=O)Nc4cc(C(F)(F)F)ccn4)cc3)c3c(N)ncc(C)n23)C1` [Example 536, 4-{8-amino-3-[(2R)-4-(methoxyacetyl)morpholin-2-yl]-5-methylimidazo[1,5-a]pyrazin-1-yl}-N-[4-(trifluoromethyl)pyridin-2-yl]benzamide, TFA salt], for which the IC50 is less than 10 nM.
Consider `N#CCN1CCO[C@@H](c2nc(-c3ccc(C(=O)Nc4cc(C(F)(F)F)ccn4)cc3)c3c(N)nccn23)C1` [Example 531, 4-{8-amino-3-[(2R)-4-(cyanomethyl)morpholin-2-yl]imidazo[1,5-a]pyrazin-1-yl}-N-[4-(trifluoromethyl)pyridin-2-yl]benzamide], for which the IC50 was less than 10 nM.
Turning to `CCOCCN1CCO[C@@H](c2nc(-c3ccc(C(=O)Nc4cc(C(F)(F)F)ccn4)cc3)c3c(N)ncc(C)n23)C1` [Example 541, 4-{8-amino-3-[(2R)-4-(2-ethoxyethyl)morpholin-2-yl]-5-methylimidazo[1,5-a]pyrazin-1-yl}-N-[4-(trifluoromethyl)pyridin-2-yl]benzamide, TFA salt], the IC50 was less than 10 nM.
Take `CCN1CCO[C@@H](c2nc(-c3ccc(C(=O)Nc4cc(C(F)(F)F)ccn4)cc3)c3c(N)ncc(Cl)n23)C1` [Example 522, 4-{8-amino-5-chloro-3-[(2R)-4-ethylmorpholin-2-yl]imidazo[1,5-a]pyrazin-1-yl}-N-[4-(trifluoromethyl)pyridin-2-yl]benzamide]: the half-inhibitory concentration (IC50) is less than 10 nM.
With `CC1(C(=O)N2CCC[C@@](O)(c3nc(-c4ccc(C(=O)Nc5cc(C(F)(F)F)ccn5)cc4)c4c(N)nccn34)C2)COC1` [Example 439, 4-(8-amino-3-{(3S)-3-hydroxy-1-[(3-methyloxetan-3-yl)carbonyl]piperidin-3-yl}imidazo[1,5-a]pyrazin-1-yl)-N-[4-(trifluoromethyl)pyridin-2-yl]benzamide], the IC50 is less than 10 nM.
As for `Cc1cnc(N)c2c(-c3ccc(C(=O)Nc4cc(C(C)(F)F)ccn4)cc3)nc([C@@H]3CCCN(C(=O)C4(C)COC4)C3)n12` [Example 454, 4-(8-amino-5-methyl-3-{(3R)-1-[(3-methyloxetan-3-yl)carbonyl]piperidin-3-yl}imidazo[1,5-a]pyrazin-1-yl)-N-[4-(1,1-difluoroethyl)pyridin-2-yl]benzamide], the IC50 was less than 10 nM.
On to `Nc1ncc(Cl)n2c([C@H]3CN(C(=O)C4(O)CC4)CCO3)nc(-c3ccc(C(=O)Nc4cc(C(F)(F)F)ccn4)cc3)c12` [Example 525, 4-(8-amino-5-chloro-3-{(2R)-4-[(1-hydroxycyclopropyl)carbonyl]morpholin-2-yl}imidazo[1,5-a]pyrazin-1-yl)-N-[4-(trifluoromethyl)pyridin-2-yl]benzamide], for which the half-maximal inhibitory concentration (IC50) is less than 10 nM.
On the same count and under the same terms, with `Cc1cc(NC(=O)c2ccc(-c3nc([C@@H]4CCCN(C(=O)C5(C)COC5)C4)n4ccnc(N)c34)cc2)ncc1F` [Example 360, 4-(8-amino-3-{(3R)-1-[(3-methyloxetan-3-yl)carbonyl]piperidin-3-yl}imidazo[1,5-a]pyrazin-1-yl)-N-(5-fluoro-4-methylpyridin-2-yl)benzamide] the figure was less than 10 nM.
On the same count and under the same terms, the same measure for `CC(=O)N1C[C@H](c2nc(-c3ccc(C(=O)Nc4cc(C(F)F)ccn4)cc3F)c3c(N)nccn23)CC[C@@H]1C` [Example 435, 4-{3-[(3R,6S)-1-acetyl-6-methylpiperidin-3-yl]-8-aminoimidazo[1,5-a]pyrazin-1-yl}-N-[4-(difluoromethyl)pyridin-2-yl]-3-fluorobenzamide]: less than 10 nM; for `C[C@H](O)C(=O)N1CCO[C@@H](c2nc(-c3ccc(C(=O)Nc4cc(C(F)(F)F)ccn4)cc3)c3c(N)ncc(Cl)n23)C1` [Example 523, 4-(8-amino-5-chloro-3-{(2R)-4-[(2S)-2-hydroxypropanoyl]morpholin-2-yl}imidazo[1,5-a]pyrazin-1-yl)-N-[4-(trifluoromethyl)pyridin-2-yl]benzamide]: less than 10 nM.
As to `Cc1nc(NC(=O)c2ccc(-c3nc([C@@H]4CCCN(C(=O)C5(C)COC5)C4)n4ccnc(N)c34)cc2)sc1C` [Example 367, 4-(8-amino-3-{(3R)-1-[(3-methyloxetan-3-yl)carbonyl]piperidin-3-yl}imidazo[1,5-a]pyrazin-1-yl)-N-(4,5-dimethyl-1,3-thiazol-2-yl)benzamide], the IC50 is less than 10 nM.
`CC1(C(=O)N2CCC[C@@H](c3nc(-c4ccc(C(=O)Nc5ncc6c(n5)CCC6)cc4)c4c(N)nccn34)C2)COC1` [Example 364, 4-(8-amino-3-{(3R)-1-[(3-methyloxetan-3-yl)carbonyl]piperidin-3-yl}imidazo[1,5-a]pyrazin-1-yl)-N-(6,7-dihydro-5H-cyclopenta[d]pyrimidin-2-yl)benzamide]: the IC50 lay within 10 to 100 nM.
Still for that read-out and setting: with `COCC(=O)N1CCO[C@@H](c2nc(-c3ccc(C(=O)Nc4cc(C(F)(F)F)ccn4)cc3)c3c(N)nccn23)C1` [Example 521, 4-{8-amino-3-[(2R)-4-(methoxyacetyl)morpholin-2-yl]imidazo[1,5-a]pyrazin-1-yl}-N-[4-(trifluoromethyl)pyridin-2-yl]benzamide] the figure was less than 10 nM; with `Nc1nccn2c([C@@H]3CCCN(C(=O)NC4CC4)C3)nc(-c3ccc(C(=O)Nc4cc(C(F)(F)F)ccn4)cc3F)c12` [Example 489, (3R)-3-[8-amino-1-(2-fluoro-4-{[4-(trifluoromethyl)pyridin-2-yl]carbamoyl}phenyl)imidazo[1,5-a]pyrazin-3-yl]-N-cyclopropylpiperidine-1-carboxamide], less than 10 nM.
The same measure, in the same setting: the same measure for `Nc1ncc(Cl)n2c([C@H]3CNCCO3)nc(-c3ccc(C(=O)Nc4cc(C(F)(F)F)ccn4)cc3)c12` [Example 504, 4-{8-amino-5-chloro-3-[(2R)-morpholin-2-yl]imidazo[1,5-a]pyrazin-1-yl}-N-[4-(trifluoromethyl)pyridin-2-yl]benzamide]: less than 10 nM.
Same read-out and setting: the same measure for `COCc1cnc(N)c2c(-c3ccc(C(=O)Nc4cc(C(F)(F)F)ccn4)cc3)nc([C@@H]3CCCN(C(=O)C4(C)COC4)C3)n12` [Example 449, 4-[8-amino-5-(methoxymethyl)-3-{(3R)-1-[(3-methyloxetan-3-yl)carbonyl]piperidin-3-yl}imidazo[1,5-a]pyrazin-1-yl]-N-[4-(trifluoromethyl)pyridin-2-yl]benzamide]: less than 10 nM; for `CC1(C(=O)N2CCO[C@@H](c3nc(-c4ccc(C(=O)Nc5cc(C(F)(F)F)ccn5)cc4)c4c(N)ncc(C#N)n34)C2)COC1` [Example 527, 4-(8-amino-5-cyano-3-{(2R)-4-[(3-methyloxetan-3-yl)carbonyl]morpholin-2-yl}imidazo[1,5-a]pyrazin-1-yl)-N-[4-(trifluoromethyl)pyridin-2-yl]benzamide]: less than 10 nM; for `COc1ccnc(NC(=O)c2ccc(-c3nn([C@@H]4CCCN(C(=O)C5(C)COC5)C4)c4ccnc(N)c34)cc2)c1` [Example 388, 4-(4-amino-1-{(3R)-1-[(3-methyloxetan-3-yl)carbonyl]piperidin-3-yl}-1H-pyrazolo[4,3-c]pyridin-3-yl)-N-(4-methoxypyridin-2-yl)benzamide]: less than 10 nM.
On to `CC1(C(=O)N2CCO[C@@H](c3nc(-c4ccc(C(=O)Nc5cc(C(F)(F)F)ccn5)cc4)c4c(N)ncc(Cl)n34)C2)COC1` [Example 505, 4-(8-amino-5-chloro-3-{(2R)-4-[(3-methyloxetan-3-yl)carbonyl]morpholin-2-yl}imidazo[1,5-a]pyrazin-1-yl)-N-[4-(trifluoromethyl)pyridin-2-yl]benzamide], for which the IC50 is less than 10 nM.
As for `Nc1nccn2c(C3CCC(C(F)(F)F)N(C(=O)C4CC4)C3)nc(-c3ccc(C(=O)Nc4cc(C(F)(F)F)ccn4)cc3F)c12` (centres unmarked) [Example 399, 4-{8-amino-3-[1-(cyclopropylcarbonyl)-6-(trifluoromethyl)piperidin-3-yl]imidazo[1,5-a]pyrazin-1-yl}-3-fluoro-N-[4-(trifluoromethyl)pyridin-2-yl]benzamide], the 50% inhibitory concentration (IC50) was less than 10 nM.
`C[C@H]1CC[C@@H](c2nc(-c3ccc(C(=O)Nc4cc(OCC(F)(F)F)ccn4)cc3)c3c(N)nccn23)CN1C(=O)C1(C)COC1` [Example 418, 4-(8-amino-3-{(3R,6S)-6-methyl-1-[(3-methyloxetan-3-yl)carbonyl]piperidin-3-yl}imidazo[1,5-a]pyrazin-1-yl)-N-[4-(2,2,2-trifluoroethoxy)pyridin-2-yl]benzamide]: the half-inhibitory concentration (IC50) was less than 10 nM.
Regarding `Cc1cc(NC(=O)c2ccc(-c3nc([C@@H]4CCCN(C(=O)C5(C)COC5)C4)n4ccnc(N)c34)cc2)no1` [Example 353, 4-(8-amino-3-{(3R)-1-[(3-methyloxetan-3-yl)carbonyl]piperidin-3-yl}imidazo[1,5-a]pyrazin-1-yl)-N-(5-methylisoxazol-3-yl)benzamide], the 50% inhibitory concentration (IC50) was in the range of 100 to 1000 nM.
Turning to `Nc1nccn2c([C@@H]3CCCN(C(=O)c4cnccn4)C3)nc(-c3ccc(C(=O)Nc4cc(C(F)(F)F)ccn4)cc3)c12` [Example 336, 4-{8-amino-3-[(3R)-1-(pyrazin-2-ylcarbonyl)piperidin-3-yl]imidazo[1,5-a]pyrazin-1-yl}-N-[4-(trifluoromethyl)pyridin-2-yl]benzamide], the IC50 was less than 10 nM.
Consider `CCC(=O)N1C[C@@H](c2nc(-c3ccc(C(=O)Nc4cc(C(F)(F)F)ccn4)cc3)c3c(N)nccn23)CC[C@@H]1C(F)(F)F` [Example 415, 4-{8-amino-3-[(3S,6R)-1-propanoyl-6-(trifluoromethyl)piperidin-3-yl]imidazo[1,5-a]pyrazin-1-yl}-N-[4-(trifluoromethyl)pyridin-2-yl]benzamide], for which the IC50 was less than 10 nM.
As to `C[C@@H](O)C(=O)N1CCO[C@@H](c2nc(-c3ccc(C(=O)Nc4cc(C(F)(F)F)ccn4)cc3)c3c(N)ncc(Cl)n23)C1` [Example 524, 4-(8-amino-5-chloro-3-{(2R)-4-[(2R)-2-hydroxypropanoyl]morpholin-2-yl}imidazo[1,5-a]pyrazin-1-yl)-N-[4-(trifluoromethyl)pyridin-2-yl]benzamide], the IC50 was less than 10 nM.

The same assay, now with this note: Table D; Assay Method C (LANCE TR-FRET), 50 pM hBTK, 25 μM ATP; read-out: IC50 BTK activity value.
Consider `COCc1cnc(N)c2c(-c3ccc(C(=O)Nc4cc(C(F)(F)F)ccn4)cc3)nc([C@@H]3CCCN(C(=O)C4(C)COC4)C3)n12` [Example 449, 4-[8-amino-5-(methoxymethyl)-3-{(3R)-1-[(3-methyloxetan-3-yl)carbonyl]piperidin-3-yl}imidazo[1,5-a]pyrazin-1-yl]-N-[4-(trifluoromethyl)pyridin-2-yl]benzamide], for which the IC50 was found to be 0.656 nM.
